Assay results as given in patent publication US10450549B2, “Aryloxyphenoxypropionate tolerance in turfrgass species and use of AAD1 as a selectable marker” (Dow AgroSciences, LLC, priority 2004, dated 2019).
Like-named read-outs stand apart in the source and are kept apart here.

Columns and labels:
[1] = test system: Hi-II corn grown from seed; assay: Lethal dose of AOPP herbicides on non-transformed Hi-II corn
[2] = test system: AAD1 (v3)-transformed T0 corn events; assay: Tolerance of T0 AAD1 (v3) corn plants (pDAB3404) to postemergence AOPP herbicides; assay type: in vivo
[3] = target: T1, AAD1 (v1) (Sphingobium herbicidovorans, UniProt Q8KSC8); assay: Colorimetric phenol detection assay of AAD1 (v1) activity (purified enzyme or E. coli extract); assay type: biochemical; conditions: for A510, AAD1 / A510, AAD1 (10x): Table 4, substrate 1 mM; for A510, AAD1: 1 μg purified AAD1 (v1) per 0.16 ml assay; for A510, AAD1 (10x): 10 μg purified AAD1 (v1) per 0.16 ml assay; for activity of AAD1 (v1) E. coli extract on substrate: 0.5 mM substrate, 4 μl extract, 15 min
T1 construct: made in house; host or cells: E. coli BL-21 Star (DE3), plasmid pDAB3203
T1 sequence (Q8KSC8 whole entry): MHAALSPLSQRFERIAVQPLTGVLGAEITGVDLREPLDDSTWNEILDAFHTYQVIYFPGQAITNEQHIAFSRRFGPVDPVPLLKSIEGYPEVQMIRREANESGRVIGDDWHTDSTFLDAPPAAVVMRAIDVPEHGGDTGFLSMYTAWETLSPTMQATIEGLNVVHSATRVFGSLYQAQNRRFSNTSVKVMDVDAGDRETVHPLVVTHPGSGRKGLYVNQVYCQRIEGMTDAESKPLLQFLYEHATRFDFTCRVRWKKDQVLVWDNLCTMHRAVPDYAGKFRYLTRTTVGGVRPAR

[4] = test system: T4 Arabidopsis homozygous for AAD1 (v3) (line AAD1.01.315.076); assay: Foliar-applied auxinic herbicides on homozygous T4 AAD1 (v3) Arabidopsis, % injury 14 DAT; assay type: in vivo, Arabidopsis thaliana; conditions: AAD1.01.315.076.T4 homozygous AAD1 plants
Outline: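 Homozygous T4 AAD1 (v3) Arabidopsis (line AAD1.01.315.076) and a PAT/Cry1F transformed control were grown in pots and track-sprayed foliarly at 187 L/ha with herbicides formulated in 200 mM Hepes pH 7.5. Injury was rated 14 days after treatment, with 3-4 replicates averaged over two experiments.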

[5] = test system: AAD1 (v3) T1 tobacco (events 721(2)-013.010 and 721(3)-008.005); assay: Segregating AAD1 T1 tobacco response to phenoxy auxin herbicides; assay type: in vivo, Nicotiana tabacum
Description: (§1) Two AAD1 (v3) tobacco lines (event 721(2)-013.010 and 721(3)-008.005) were chosen from the T0 generation. The T1 seed was stratified, and sown into selection trays much like that of Arabidopsis (Example 6.4), followed by selective removal of untransformed nulls in this segregating population with 280 g ai/ha glufosinate (PAT selection). Survivors were transferred to individual 3-inch pots in the greenhouse. […] Improved consistency of response is anticipated in T1 plants not having come directly from tissue culture. These plants were compared against wildtype KY 160 tobacco. All plants were sprayed with the use of a track sprayer set at 187 L/ha. […] All applications were formulated in 200 mM Hepes buffer (pH 7.5). Each treatment was replicated 4 times. Plants were evaluated at 3 and 14 days after treatment. Plants were assigned injury rating with respect to stunting, chlorosis, and necrosis. The T1 generation is segregating, so some variable response is expected due to difference in zygosity. (Table 28).

[6] = test system: wildtype KY 160 tobacco; assay: Wildtype tobacco response to phenoxy auxin herbicides; assay type: in vivo, Nicotiana tabacum; conditions: KY160-Wildtype
Procedure: Each treatment was replicated 1-3 times. Injury ratings were recorded 3 and 14 DAT. […] In several events, some initial auxinic herbicide-related epinasty occurred at doses of 800 g ae/ha or less. […] All events suffered some level temporary auxinic damage 3 DAT when treated with 3200 g ae/ha. Some leaf burning also occurred at this high rate due to the acidity of the spray solution. Future trials at high 2,4-D rates were buffered. […] Some events were inconsistent in response among replicates and were deemed “variable” (Table 27).
as §1

[7] = test system: transformed-control line containing PAT and Cry1F; assay: Foliar-applied auxinic herbicides on control (PAT/Cry1F, wildtype) Arabidopsis, % injury 14 DAT; assay type: in vivo, Arabidopsis thaliana; conditions: PatCry1f - Control
Procedure: The ability of AAD1 (v3) to provide resistance to other aryloxyphenoxyalkanoate auxin herbicides in transgenic Arabidopsis was determined by foliar application of various substrates described in Example 6.8. T4 generation Arabidopsis seed, homozygous for AAD1 (v3) (line AAD1.01.315.076) was stratified, and sown into selection trays much like that of Arabidopsis (Example 6.4). A transformed-control line containing PAT and the insect resistance gene Cry1F was planted in a similar manner. Seedlings were transferred to individual 3-inch pots in the greenhouse. All plants were sprayed with the use of a track sprayer set at 187 L/ha. […] All applications were formulated in 200 mM Hepes buffer (pH 7.5). Each treatment was replicated 3-4 times. Plants were evaluated at 3 and 14 days after treatment and are averaged over two experiments.

[8] = test system: Agrostis palustris var. Pencross; assay: Bentgrass plate test bioassay for herbicide degradation; assay type: in vivo; conditions: for GR50 ratio: enzyme-expressing lysate vs blank vector, ≥ 2 = threshold
Procedure: Because of the selective nature of the herbicides being tested (i.e., monocot plants controlled by AOPP herbicides and dicot plants controlled by auxinic herbicides), wildtype Agrostis palustris var. Pencross and Arabidopsis thaliana var. Columbia were used as monocot and dicot test species, respectively. Each species is amenable to germination and growth in small Petri dishes.
Twenty to thirty sterilized seeds for each test species used were added onto a sterile, solidified agar Plate Test Medium (PTM) [2.5 mM KNO3, 2.5 mM KH2PO4, […], 10 mM NaEDTA (pH 8.0), 2 mM MgSO4, 2 mM Ca(NO3) 2, 70 μM H3BO3, 14 μM MnCl2, 0.5 μM CuSO4, 1 μM ZnSO4, 0.2 μM NaMoO4.2H2O, 10 μM NaCl, 10 nM CoCl2.H2O, 0.8% (w/v) sucrose, 0.4% agarose (w/v)] for bioassay in 60×15-mm Petri dishes (Falcon 1007). PTM was additionally modified by adding up to six rates of test herbicide standards or herbicide-enzyme test solution dilutions such that the four-fold concentration increments covered a rate range of three orders of magnitude with the GR50 rate (50% growth reduction) approximately in the center of the range.
For herbicide-enzyme test solutions, the maximal concentration was determined based on the nominal concentration before any subsequent enzymatic degradation would occur. Seeds were evenly spread by adding 3 ml of melted PTM of the same composition, swirling, and allowing to solidify. Plates were sealed and maintained under sterile conditions in a low light growth chamber (24 h day^−1, 100 μE/m^2s^1, 23° C.) for 7 days. Root length or root+shoot length were measured for five randomly chosen Arabidopsis and bentgrass plants, respectively, average mean length (percent of untreated control) vs. nominal herbicide concentration and GR50 determined.

[9] = test system: Hi II X 5XH751; assay: Greenhouse injury of non-transformed Hi II X 5XH751 corn (2,4-D DMA, glyphosate, glufosinate and combinations); assay type: in vivo
Procedure: (§2) F1 seeds were planted individually into 3-inch pots prepared with Metro-Mix® 360 growing medium (Sun Gro Horticulture). […] For the remainder of the study the plants were subirrigated with deionized water.
(§3) The plants were sprayed with rates of 2,4-D DMA, glyphosate, glufosinate, and various combinations of the three. All applications were formulated in 200 mM Hepes buffer (pH 7.5). In spray applications where glufosinate was present the treatment was formulated with the addition of 2% w/v ammonium sulfate.
(§4) At 3 and 14 days after treatment (DAT) plants were evaluated. Plants were assigned injury rating with respect to stunting, chlorosis, and necrosis. Plants assigned an injury rating of 90% or above are considered dead.

[10] = test system: F1 corn containing AAD1 (v3), PAT, and glyphosate resistance genes; assay: Greenhouse injury of F1 corn stacked with AAD1 (v3), PAT and glyphosate resistance (2,4-D DMA, glyphosate, glufosinate and combinations); assay type: in vivo; conditions: RR/PAT/AAD1
Description: Homozygous T2 AAD1 (v3)/PAT corn plants were crossed with glyphosate resistant corn plants producing F1 seed containing AAD1 (v3), PAT, and glyphosate resistance genes as described in the previous example.
as §2, §3, §4

[11] = purified AAD1 (v1), 1 mM substrate
[12] = Agrostis stolonifera, AAD1 (v1)-expressing lysate, nominal concentration, read-out: GR50, Chemical + AAD1 v1
[13] = Escherichia coli, in Agrostis stolonifera, cell lysate of E. coli pET vector without gene insert, read-out: GR50, Chemical + Blank Vector

C[C@@H](Oc1ccc(Oc2ccc(C#N)cc2F)cc1)C(=O)O [cyhalofop]
lethal dose ([1]; Clincher + 1% COC (v/v)): 62.5 g ae/ha) | rate that effectively kills (>95% injury) three to four leaf Hi-II corn ([1]; postemergence, commercial formulations): 62.5 g ae/ha | % Injury 14 DAT ([2]; 62.5 g ae/ha, construct 3404 event 001 clone 018): 0% | % Injury 14 DAT ([2]; 62.5 g ae/ha, construct 3404 event 022 clone 024): 0% | % Injury 14 DAT ([2]; 62.5 g ae/ha, construct 3404 event 038 clone 018): 0% | % Injury 14 DAT ([2]; 125 g ae/ha, construct 3404 event 022 clone 018): 0% | A510, AAD1 [3]: 0.114 | A510, AAD1 (10x) [3]: 1.26 | activity relative to the dichlorprop rate [3, 11]: 21% | activity relative to the quizalofop rate [3, 11]: 27%

C[C@@H](Oc1ccc(Cl)cc1Cl)C(=O)O [R-dichlorprop]
Ave % Injury 14DAT ([4]; 50 g ae/ha foliar): 3% | Ave % Injury 14DAT ([4]; 200 g ae/ha foliar): 3% | Ave % Injury 14DAT ([4]; 800 g ae/ha foliar): 3% | Ave % Injury 14DAT ([4]; 3200 g ae/ha foliar): 3% | Average % Injury of Replicates 14 DAT ([5]; 560 g ae/ha, 721(2)013.010 (medium tolerance in T0 generation)): 5% | Average % Injury of Replicates 14 DAT ([5]; 560 g ae/ha, 721(3)008.005 (high tolerance in T0 generation)): 0% | Average % Injury of Replicates 14 DAT ([5]; 1120 g ae/ha, 721(2)013.010 (medium tolerance in T0 generation)): 5% | Average % Injury of Replicates 14 DAT ([5]; 1120 g ae/ha, 721(3)008.005 (high tolerance in T0 generation)): 0% | Average % Injury of Replicates 14 DAT ([5]; 2240 g ae/ha, 721(2)013.010 (medium tolerance in T0 generation)): 5% | Average % Injury of Replicates 14 DAT ([5]; 2240 g ae/ha, 721(3)008.005 (high tolerance in T0 generation)): 0% | Average % Injury of Replicates 14 DAT ([5]; 4480 g ae/ha, 721(2)013.010 (medium tolerance in T0 generation)): 10% | Average % Injury of Replicates 14 DAT ([5]; 4480 g ae/ha, 721(3)008.005 (high tolerance in T0 generation)): 5% | injury of T1 AAD1 (v3) tobacco ([5]; rates below 1× field rates (560 g ae/ha), either event): No injury was observed | kcat ([3]; purified AAD1 (v1)): 0.435 s⁻¹ | Km ([3]; purified AAD1 (v1), 25 mM MOPS pH 6.8, 25° C., read-out: Km ± SE): 75 ± 10 µM | Vmax ± SE ([3]; purified AAD1 (v1), Michaelis-Menten fit): 0.79 ± 0.03 μmol min^−1 mg^−1 AAD1 | Average % Injury of Replicates 14 DAT ([6]; 560 g ae/ha): 70% | Average % Injury of Replicates 14 DAT ([6]; 1120 g ae/ha): 75% | Average % Injury of Replicates 14 DAT ([6]; 2240 g ae/ha): 88% | Average % Injury of Replicates 14 DAT ([6]; 4480 g ae/ha): 95% | Ave % Injury 14DAT ([7]; 50 g ae/ha foliar): 31% | Ave % Injury 14DAT ([7]; 200 g ae/ha foliar): 73% | Ave % Injury 14DAT ([7]; 800 g ae/ha foliar): 89% | Ave % Injury 14DAT ([7]; 3200 g ae/ha foliar): 95%

CC(Oc1ccc(Oc2ccc(Cl)cc2Cl)cc1)C(=O)O (racemic) [(R,S)- diclofop]
herbicidal activity after AAD1 (v1) treatment, bentgrass plate bioassay ([8]; AAD1 (v1) extract): loss of herbicidal activity | IC50 [8, 12]: 130 nM | IC50 [8, 13]: 20 nM | GR50 ratio [8]: 7 | activity of AAD1 (v1) E. coli extract on substrate [3]: cleaved | A510, AAD1 [3]: 0.155 | A510, AAD1 (10x) [3]: 1.663

CC(Oc1ccc(Oc2ncc(C(F)(F)F)cc2Cl)cc1)C(=O)O (stereo not shown) [Haloxyfop-RS]
IC50 ([8]; Agrostis stolonifera, 168 h, root+shoot length, 7 days, read-out: GR50, Chemical alone): 28 nM | IC50 [8, 12]: 520 nM | IC50 [8, 13]: 21 nM | GR50 ratio [8]: 25 | activity of AAD1 (v1) E. coli extract on substrate [3]: cleaved

CP(=O)(O)CCC(N)C(=O)O (stereo not shown) [glufosinate]
% Injury at 14 DAT Ave ([9]; 470 g ae/ha (1X)): 80% | % Injury at 14 DAT Ave ([9]; 940 g ae/ha (2X)): 90% | % Injury at 14 DAT Ave ([9]; 1880 g ae/ha (4X)): 96% | % Injury at 14 DAT Ave ([10]; 470 g ae/ha (1X)): 0% | % Injury at 14 DAT Ave ([10]; 940 g ae/ha (2X)): 3% | % Injury at 14 DAT Ave ([10]; 1880 g ae/ha (4X)): 15%
